# Residues, ends and D or L forms follow the SMILES beside them.
# Assays:
# Sprague-Dawley rats = experiment: Example 5: unilateral ureteral obstruction (UUO), 14 days; type: in vivo, rat
# Method: UUO will be induced in Sprague-Dawley rats. The rats will be treated with saline (i.p., n=6), peptide conjugates (1 mg/kg i.p., n=6), aromatic-cationic peptides (e.g., an equivalent molar dose of aromatic-cationic peptide based on the concentration of the aromatic-cationic peptide administered in the peptide conjugate treatment group), SPN10(s) (e.g., an equivalent molar dose of SPN10 based on the concentration of SPN10 administered in the peptide conjugate treatment group), or SPN10(s) in combination with aromatic-cationic peptides (e.g., an equivalent molar dose of SPN10 based on the concentration of SPN10 administered in the peptide conjugate treatment group and an equivalent molar dose of aromatic-cationic peptide based on the concentration of aromatic-cationic peptide administered in the peptide conjugate treatment group) one day prior to induction of UUO, and once daily for 14 days after UUO induction. Rats will be sacrificed and the kidneys removed, embedded in paraffin, and sectioned. The sections will be treated with an anti-CD36 polyclonal IgG (Santa Cruz, sc-9154; diluted 1:100 with blocking serum) at room temperature for 1.5 hours. The slides will then be incubated with the second antibody conjugated with biotin (anti-rabbit IgG-B1; ABC kit, PK-6101) at room temperature for 30 min. The slides will then be treated with avidin, developed with DAB and counterstained with 10% hematoxylin. The contralateral unobstructed kidney will serve as the control for each animal.
# Rats will then be sacrificed, kidneys removed, embedded in paraffin and sectioned. Slides will be incubated with anti-HNE rabbit IgG and a biotin-linked anti-rabbit IgG will be used as secondary antibody. The slides will be developed with DAB. Lipid peroxidation, which is increased by UUO, is anticipated to be reduced by treatment with peptide conjugates, aromatic-cationic peptides, or SPN10(s) (with or without aromatic-cationic peptides).
# Rats will then be sacrificed, kidneys removed, embedded in paraffin and sectioned. To quantify nuclei with fragmented DNA, TUNEL assay will be performed with in situ TUNEL kit. Slides will be developed with DAB and counterstained with 10% hematoxylin. […] It is anticipated that there will be a significant increase in apoptotic cells observed in the obstructed kidney from saline-treated animals when compared to the contralateral unobstructed control.
# Macrophage infiltration and interstitial fibrosis are anticipated to be prevented by treatment with peptide conjugates, aromatic-cationic peptides, or SPN10(s) (alone or in combination with aromatic-cationic peptides). Rats will be treated with either saline (n=6), peptide conjugates (1 mg/kg i.p., n=6), aromatic-cationic peptides (e.g., an equivalent molar dose of aromatic-cationic peptide based on the concentration of the aromatic-cationic peptide administered in the peptide conjugate treatment group), SPN10(s) (e.g., an equivalent molar dose of SPN10 based on the concentration of SPN10 administered in the peptide conjugate treatment group) or SPN10(s) in combination with aromatic-cationic peptides (e.g., an equivalent molar dose of SPN10 based on the concentration of SPN10 administered in the peptide conjugate treatment group and an equivalent molar dose of aromatic-cationic peptide based on the concentration of aromatic-cationic peptide administered in the peptide conjugate treatment group) one day prior to induction of UUO, and once daily for 14 days after UUO. Rats will then be sacrificed, the kidneys removed, embedded in paraffin and sectioned. Slides will be treated with monoclonal antibody for ED1 macrophage (1:75; Serotec). Horseradish peroxidase-linked rabbit anti-mouse secondary antibody (Dako) will be used for macrophage detection. Sections will then be counterstained with 10% hematoxylin. […]
# CD-1 mice = experiment: Example 7: streptozotocin (STZ)-induced diabetes, renal damage; type: in vivo, mouse; conditions: STZ-treated mice
# Method: Streptozotocin (STZ) will be used to induce diabetes in mice. […] groups of CD-1 mice will be studied: Group I—no STZ treatment; Group II—STZ (50 mg/kg, i.p.) will be given once daily for 5 days; Group III—STZ (50 mg/kg, i.p.) will be given once daily for 5 days, +peptide conjugates (3 mg/kg, i.p.) will be given once daily for 16 days; Group IV—STZ (50 mg/kg, i.p.) will be given once daily for 5 days, +aromatic-cationic peptides (an equivalent molar dose of aromatic-cationic peptide based on the concentration of the aromatic-cationic peptide administered in the peptide conjugate treatment group) will be given once daily for 16 days; Group V—STZ (50 mg/kg, i.p.) will be given once daily for 5 days, +SPN10 (an equivalent molar dose of SPN10 based on the concentration of SPN10 administered in the peptide conjugate treatment group) will be given once daily for 16 days; Group VI—STZ (50 mg/kg, i.p.) will be given once daily for 5 days, +SPN10(s) in combination with aromatic-cationic peptides (e.g., an equivalent molar dose of SPN10 based on the concentration of SPN10 administered in the peptide conjugate treatment group and an equivalent molar dose of aromatic-cationic peptide based on the concentration of aromatic-cationic peptide administered in the peptide conjugate treatment group) will be given once daily for 16 days. It is anticipated that STZ treatment will result in a progressive increase in blood glucose. Animals will be sacrificed after 3 weeks and kidney tissues preserved for histopathology. Kidney sections will be examined by Periodic Schiff (PAS) staining for renal tubular brush border.
# It is anticipated that STZ treatment will induce significant apoptosis in tubular epithelial cells. Kidney sections will be examined for apoptosis using a TUNEL assay as described herein. It is anticipated that kidney sections from mice treated with STZ will show a large number of apoptotic nuclei in the proximal tubules, compared to non-STZ treated controls.
smiles,measurement,setting,value
"N=C(N)NCCC[C@H](NC(=O)[C@@H](N)Cc1c[nH]c2ccccc12)C(=O)N[C@@H](Cc1c[nH]c2ccccc12)C(=O)N[C@@H](CCCCN)C(N)=O [SPN10, H-L-Trp-L-Arg-L-Trp-L-Lys-NH2] (H-WRWK-NH2)",CD36 expression in tubular cells after UUO,Sprague-Dawley rats; anti-CD36 immunostaining,significant reduction in CD36 expression
same,HNE staining in obstructed kidney,Sprague-Dawley rats; compared to saline-treated rats,significantly less HNE staining
same,tubular dilation after UUO,Sprague-Dawley rats; one day prior to UUO and once daily for 14 days,Tubular dilation is also anticipated
same,interstitial fibrosis in obstructed kidney (Masson's trichrome),"Sprague-Dawley rats; rat, in vivo",significantly less fibrosis
same,lipid peroxidation in kidney after UUO,"Sprague-Dawley rats; rat, in vivo",reduced
same,macrophage infiltration in obstructed kidney (ED1),"Sprague-Dawley rats; rat, in vivo",significantly reduced
same,number of apoptotic cells in obstructed kidney (TUNEL),"Sprague-Dawley rats; rat, in vivo",significantly reduced
same,up-regulation of CD36 associated with tubular cell apoptosis,"Sprague-Dawley rats; rat, in vivo",significantly inhibited
same,apoptotic cells in the proximal tubule (TUNEL),CD-1 mice,dramatically reduce apoptotic cells
same,tubular epithelial nuclei,CD-1 mice,appear normal
same,loss of brush border in proximal tubules (PAS),CD-1 mice; daily treatment,prevent the loss of brush border

# Reference: patent publication US20240108740A1, “THERAPEUTIC COMPOSITIONS INCLUDING SPN10 AND USES THEREOF” (Stealth BioTherapeutics Inc., priority 2022, published 2024)
